Measured values as given in US6706703B2, “Bis(5-aryl-2-pyridyl) derivatives” (Kowa Co., Ltd., priority 2001, dated 2004).
Where a name gives a salt, the structure may show the parent alone. Marks after values point to notes of the source that are not given here.

How the values were obtained:
[1] = test system: IgE antibody production; test: Evaluation of IgE antibody production inhibiting activity (B cells + LPS + mouse IL-4, IgE in culture supernatant by ELISA); format: cell-based; conditions: B-cell, mouse (Balb/C) spleen B cells, LPS 1 day then mouse IL-4 6 days
Protocol: Test 1 (Evaluation of IgE Antibody Production Inhibiting Activity)
From a mouse (Balb/C, male, 8 weeks old), the spleen was enucleated. The spleen was shredded in 10% FEB/RPMI 1640, and was then disintegrated into single cells through a 70-mesh screen. Those single cells were hemolyzed with Gey's solution, and using RPMI 1640 medium/25 mM HEPES/0.3% BSA, a spleen cell suspension (1×10^7 cells/mL) was prepared. After an aliquot of the suspension was reacted with a rat anti-mouse Thy-1.2 monoclonal antibody (product of Cedarlane Laboratories Limited) at 4° C. for 1 hour, centrifugation was conducted. Precipitated cells were suspended again (1×10^7 cells/mL, RPMI/HEPES/BSA). After the suspension was next reacted with a low-cytotoxic rabbit complement (product of Cedarlane Laboratories Limited) at 37° C. for 1 hour, dead cells were removed by specific gravity centrifugation using Lympholyte M (product of Cedarlane Laboratories Limited) so that a B cell fraction was obtained as viable cells.
Using a 96-well plate, the B cells (2×10^5 cells/0.2 mL/well) were incubated together with LPS (E. coli 026:B6, product of DIFCO Laboratories, Inc.) for 1 day. Mouse IL-4 (product of Genzyme Corp.) was then added, followed by further incubation for 6 days.
The IgE antibody production inhibiting activity of each drug was calculated by adding the drug Day 1 of the incubation and assaying the quantity of IgE in the culture supernatant by ELISA after the incubation.

[2] = Solubility of each compound in water; format: physicochemical
Description: Further, the solubility (%) of each compound in water was also estimated.

[3] = solubility in 0.1M hydrochloric acid (footnote *)

Row | SMILES | IC50 [1] | Water solubility [2, 3] | Water solubility ([2]; in water)
1 | COc1cc(-c2ccc(N3CCN(CCCN4CCN(c5ccc(-c6cc(OC)c(OC)c(OC)c6)cn5)CC4)CC3)nc2)cc(OC)c1OC [Example 57, 1,3-Bis[4-[5-(3,4,5-trimethoxyphenyl)-2-pyridyl]-1-piperazinyl]propane] | 100 nM | 5* % | 
2 | COc1cc(-c2ccc(N(C)CCN(C)c3ccc(-c4cc(OC)c(OC)c(OC)c4)cn3)nc2)cc(OC)c1OC [Example 58, N,N′-Bis[5-(3,4,5-trimethoxyphenyl)-2-pyridyl]-N,N′-dimethylethylenediamine Dimethanesulfonate] | 200 nM |  | 5%

Results, then the molecule that gave them:

Row | IC50 [1] | Water solubility [2, 3] | Water solubility ([2]; in water) | SMILES
3 | 200 nM | 5* % |  | COc1cc(-c2ccc(N3CCCN(c4ccc(-c5cc(OC)c(N(C)C)c(OC)c5)cn4)CC3)nc2)cc(OC)c1N(C)C [Example 35, 1,4-Bis[5-(4-dimethylamino-3,5-dimethoxyphenyl)-2-pyridyl]hexahydro-1,4-diazepine]
4 | 200 nM |  | 5% | COc1cc(-c2ccc(N3CCCN(c4ccc(-c5cc(OC)c(OC)c(OC)c5)cn4)CC3)nc2)cc(OC)c1OC [Example 26, 1,4-Bis[5-(3,4,5-trimethoxyphenyl)-2-pyridyl]hexahydro-1,4-diazepine Dimethanesulfonate]
5 | 300 nM |  | 5% | COc1cc(-c2ccc(N3CCCN(c4ccc(-c5cc(OC)c(N)c(OC)c5)cn4)CC3)nc2)cc(OC)c1N [Example 34, 1,4-Bis[5-(4-amino-3,5-dimethoxyphenyl)-2-pyridyl]hexahydro-1,4-diazepine Tetrahydrochloride]
